This is an account of results in PubChem BioAssay (NCI).

Test systems include SNB-75 CNS; UACC-257 melanoma; LOX IMVI melanoma; OVCAR-4 ovarian; K-562 leukemia; NCI-H522 lung; NCI-H460 lung; SF-268 CNS; SK-OV-3 ovarian; RXF 393 renal; HOP-92 NSCLC; UO-31 renal; HL-60(TB) leukemia; RPMI-8226 leukemia; UACC-62 melanoma; MOLT-4 leukemia; HOP-62 NSCLC; SNB-19 CNS; MALME-3M melanoma; OVCAR-5 ovarian.
Assay in all cases: NCI anticancer screen, dose series, 48 h

The structures appear in SMILES notation.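 Assay format: 96-well plates, 48-hour exposure. TGI: concentration producing complete growth inhibition.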

For `OCC#CCNCl`, the TGI in the test on SNB-75 CNS, in the test with UACC-257 melanoma, with LOX IMVI melanoma, with OVCAR-4 ovarian, with K-562 leukemia and with NCI-H522 lung was > 100 µM in each case. Moreover, the TGI with NCI-H460 lung, in the test on SF-268 CNS, with SK-OV-3 ovarian, in the test on RXF 393 renal, in the test on HOP-92 NSCLC and with UO-31 renal was > 100 µM throughout. Further, the TGI in the test on HL-60(TB) leukemia, in the test with RPMI-8226 leukemia, in the test on UACC-62 melanoma, in the test on MOLT-4 leukemia, with HOP-62 NSCLC and with SNB-19 CNS was > 100 µM throughout. The TGI in the test on MALME-3M melanoma and with OVCAR-5 ovarian was > 100 µM throughout.

On to `O=[N+]([O-])C(=C/c1ccccc1)/C(=C\c1ccccc1)[N+](=O)[O-]`, for which the TGI in the test on SNB-75 CNS was 37 µM; with UACC-257 melanoma, 32.1 µM; in the test on LOX IMVI melanoma, 29.1 µM; in the test with OVCAR-4 ovarian, 38.1 µM; with K-562 leukemia it was > 100 µM; with NCI-H460 lung, 33 µM. Also, the TGI is 50 µM in the test with SF-268 CNS; 48.2 µM in the test on SK-OV-3 ovarian; 33.5 µM in the test with RXF 393 renal; 39.8 µM in the test on HOP-92 NSCLC; 31.3 µM in the test with UO-31 renal; 48.4 µM with RPMI-8226 leukemia. Also, the TGI with UACC-62 melanoma is 30.7 µM; in the test on MOLT-4 leukemia it was 19.5 µM; in the test with HOP-62 NSCLC, 40 µM; in the test on SNB-19 CNS, 33.4 µM; in the test with OVCAR-5 ovarian, 46.6 µM.

With `C/C(=C/C(=O)Nc1ccccc1)Nc1onc(C)c1C`, the TGI with SNB-75 CNS, in the test with UACC-257 melanoma, with LOX IMVI melanoma, in the test with OVCAR-4 ovarian, with K-562 leukemia and in the test on NCI-H522 lung was > 100 µM each time. For the same compound, the TGI in the test with NCI-H460 lung, in the test with SF-268 CNS, in the test on SK-OV-3 ovarian, in the test with RXF 393 renal, in the test on HOP-92 NSCLC and in the test on UO-31 renal was > 100 µM each time. For the same compound, the TGI in the test on HL-60(TB) leukemia, in the test on RPMI-8226 leukemia, with UACC-62 melanoma, in the test on MOLT-4 leukemia, with HOP-62 NSCLC and with SNB-19 CNS was > 100 µM in each case. The TGI in the test with MALME-3M melanoma and in the test with OVCAR-5 ovarian was > 100 µM throughout.

Turning to `FC(F)(F)c1ccc2c(c1)N(CCCNCCN1CCOCC1)c1ccccc1S2`, the TGI with SNB-75 CNS was 20.9 µM; in the test with UACC-257 melanoma, 23.3 µM; in the test on LOX IMVI melanoma, 21.2 µM; with K-562 leukemia it was 10.2 µM; in the test on NCI-H522 lung, 30.6 µM; with NCI-H460 lung it was 38.5 µM. In addition, the TGI in the test on SF-268 CNS amounted to 37.2 µM; in the test with RXF 393 renal, 9.11 µM; with HOP-92 NSCLC, 11.2 µM; with UO-31 renal, 17.5 µM; with HL-60(TB) leukemia it was 22.2 µM; with RPMI-8226 leukemia, 28.9 µM. Moreover, the TGI in the test on UACC-62 melanoma was found to be 27.8 µM; with MOLT-4 leukemia, 20.1 µM; in the test with HOP-62 NSCLC, 27.1 µM; with SNB-19 CNS, 30.1 µM; with MALME-3M melanoma, 7.15 µM; with OVCAR-5 ovarian, 23.4 µM.

Turning to `CC(C)(O)/C1=C/C=C/CCCCCCCCCC1`, the TGI with SNB-75 CNS was 2.85 µM; with UACC-257 melanoma, > 100 µM; in the test with LOX IMVI melanoma it was > 100 µM; in the test with K-562 leukemia, > 100 µM; in the test with NCI-H522 lung, > 100 µM; in the test on NCI-H460 lung it was > 100 µM. Also, the TGI in the test with SF-268 CNS is > 100 µM; in the test with SK-OV-3 ovarian, > 100 µM; with HOP-92 NSCLC it was > 100 µM; in the test on UO-31 renal it was > 100 µM; with HL-60(TB) leukemia, 98.6 µM; in the test on RPMI-8226 leukemia, > 100 µM. Moreover, the TGI in the test on UACC-62 melanoma, with MOLT-4 leukemia, in the test on HOP-62 NSCLC, in the test on SNB-19 CNS, in the test on MALME-3M melanoma and in the test with OVCAR-5 ovarian was > 100 µM throughout.

As for `COc1cc(OC2OC(CO)C(O)C(O)C2O)c2c(O)c3c(=O)cc(C)oc3cc2c1` (stereo not given), the TGI in the test on SNB-75 CNS, in the test on UACC-257 melanoma, in the test with LOX IMVI melanoma, with OVCAR-4 ovarian, in the test with K-562 leukemia and in the test on NCI-H522 lung was > 100 µM in each case. The TGI with NCI-H460 lung, in the test on SF-268 CNS, with SK-OV-3 ovarian, with UO-31 renal, in the test on HL-60(TB) leukemia and with RPMI-8226 leukemia was > 100 µM throughout. Besides, the TGI in the test on UACC-62 melanoma, in the test with MOLT-4 leukemia, with HOP-62 NSCLC, in the test with SNB-19 CNS, with MALME-3M melanoma and in the test on OVCAR-5 ovarian was > 100 µM throughout.

As for `O=S(O)CCCCCSSc1ccccc1`, the TGI is 99.5 µM with SNB-75 CNS; > 100 µM in the test on UACC-257 melanoma; 38.4 µM in the test on LOX IMVI melanoma; > 100 µM with OVCAR-4 ovarian; > 100 µM in the test with K-562 leukemia; 42 µM in the test with NCI-H522 lung. In addition, the TGI is > 100 µM with NCI-H460 lung; 85.5 µM in the test on SF-268 CNS; > 100 µM with SK-OV-3 ovarian; 89.2 µM in the test on RXF 393 renal; > 100 µM in the test with UO-31 renal; 88.1 µM in the test on HL-60(TB) leukemia. The TGI in the test on RPMI-8226 leukemia was 56.4 µM; in the test with UACC-62 melanoma, 79.9 µM; in the test on MOLT-4 leukemia, 34.2 µM; in the test with HOP-62 NSCLC it was > 100 µM; in the test with SNB-19 CNS it was > 100 µM; in the test with MALME-3M melanoma, > 100 µM. Further, the TGI with OVCAR-5 ovarian is > 100 µM.
